From US10822376B2, “Biologically active peptides” (Baxalta Incorporated, priority 2008, dated 2020)
In brackets after ≈: the same amount, converted by molar mass. Read-outs that look alike come from different tables or passages of the source. Where a SMILES comes first, the peptide text is derived from it. Where no end group is shown, it is not given here. [ ]: non-standard residue; d: D form.

Key:
Acute toxicology in mice = assay type: in vivo, mouse; conditions: C57BL/6, mouse, in vivo, 60 minutes following administration, read-out: Max dose within toxicity category: No detected toxicity
Experimental: Toxicology studies involved monitoring of attitude changes due to toxic effects immediately after application and twice daily; monitoring of body weight; histopathology of brain, heart, kidney, liver, lung. Experiments were performed in C57131/6 mice.
C57BI/6 mice weighing 18-20 g were administered with compounds in a suitable vehicle i.v. in the tail vein or i.p. or s.c at 10 ml/kg. Quantities of the compounds administered were in the range of 0.075 to 125 mg/kg (i.v.), 15-125 mg/kg (i.p.) and 125 mg/kg (s.c.). There were four mice per group. Attitude changes due to toxic effects were monitored immediately after administration of the compound and for 60 minutes thereafter. Body weight was monitored for five days after administration. At day 5 after administration, mice were culled and autopsy performed. Brain, heart, kidney, liver, lung and spleen were biopsied.
In the above table, the maximum dose tested giving rise to no detected toxicity, some toxicity or severe toxicity over the period of 60 minutes following administration is reported. “No detected toxicity” indicates no acute toxic observations.

FVIII deficient plasma = assay: Defined Dual-Pathway Thrombin Generation Assay (DDPTGA, reagent C high), FVIII deficient plasma; assay type: biochemical, human; conditions: for Peak IIa FVIII EU / Peak Time FVIII EU: FVIII deficient plasma
physchem = conditions: for solubility kinetic: pH 7.4
Experimental: Aqueous solubility is measured in PBS at pH 7.4 either in an assay provided by Cerep (France, Catalog ref. 900-11a) or according to the following protocol. The aim of this procedure is to determine the solubility of a drug candidate (analyte) in a buffer, by estimating the saturation concentration of the candidate in the buffer using HPLC. A known concentration of the candidate in an organic solvent is used as a standard. A stock solution of the test compound in DMSO must be prepared as the initial step. […] DMSO stock-solutions are diluted to a final concentration of 50 μM with DMSO (100% reference-solution) and buffer (test-solution) to provide a minimum volume of 500 μL of each. Both solutions are shaken at 25° C. at 950 rpm in an Eppendorf “thermomixer comfort” for at least 60 min. The suspension is centrifuged at 22 330 g for at least two min and 100 μL of the supernatant is transferred into polypropylene-inserts placed in glass vials and closed by snap-ring caps. Alternatively the solutions can be prepared in microtiter plates with half of the previously described starting solvent volume. For the determination of the solubility all samples are analyzed by HPLC in triplicate. Injection volume is at least 10 μL. The obtained data are analyzed by “Chemstation-software” (Agilent, Waldbronn, Germany). The peaks from the analyses of the organic solutions are integrated and the arithmetic mean is reported as “AUC 1” (reference area of known amount injected at the HPLC). […] The ratio of the mean “AUC 2” and “AUC 1” is calculated and thus the percentage of the dissolved amount of compound in buffer is obtained and solubility can be reported in μM.

[1] = system: Factor X deficient human plasma; assay: DDPTGA (reagent B) in FX depleted plasma; conditions: compounds at 50 μM and 80, 90 or 100 μM
Experimental: (§1) The Defined Dual-Pathway Thrombin Generation Assay is performed as described below, using a commercial test kit (Technothrombin TGA, Technoclone GmbH, Vienna, Austria). […] USA) are incubated four minutes at 37° C. Preferably, Reagent C high is used. Thrombin generation is started by the addition of 40 μl of one of several types of human plasma (37° C.). […] By deviating the original fluorescence data the amount of generated thrombin is calculated from a standard curve constructed using a concentration range of thrombin.
(§2) The in vitro thrombin generation assay based on the cleavage of Z-GGR-AMC to release the fluorophore AMC, described in the specific description, i.e. the Defined Dual-Pathway Thrombin Generation Assay was used to characterise the effect of the compounds in several depleted human plasmas. […] 10 μl peptide dilution, 40 μl TGA substrate and 40 μl plasma were used as described in the specific description.
(§3) The plasmas used in the experiments were fresh frozen and were deficient in Factor V, Factor VII/VIIa, Factor VIII, Factor X or Factor XI (George King Bio-Medical, Inc.). Residual coagulation factor levels of deficient plasmas were specified as less than 1%.
(§4) For each depleted plasma used in the experiments, compounds were tested at two concentrations, namely 50 μM and 80, 90 or 100 μM. A negative control was used, in which no test compound was included.

FVIII inhibited plasma = assay: Defined Dual-Pathway Thrombin Generation Assay (DDPTGA, reagent C high), FVIII inhibited plasma; assay type: biochemical, human; conditions: for Peak IIa FEIBA EU / Peak IIa FVIIa EU / Peak Time FEIBA EU / Peak Time FVIIa EU: FVIII inhibited plasma; for Activity in the Defined Dual-Pathway Thrombin Generation Assay: summary, FVIII inhibited or deficient plasma
[2] = system: Factor V deficient human plasma; assay: DDPTGA (reagent B) in FV depleted plasma; conditions: compounds at 50 μM and 80, 90 or 100 μM
Experimental: as §1, §2, §3, §4

[3] = system: human FVIII inhibited plasma; assay: Defined Intrinsic Thrombin Generation Assay (DITGA, triggered by FXIa and phospholipids); assay type: biochemical; conditions: for Activity in the Defined Intrinsic Thrombin Generation Assay: summary
[4] = system: Factor VII/VIIa deficient human plasma; assay: DDPTGA (reagent B) in FVII depleted plasma; conditions: compounds at 50 μM and 80, 90 or 100 μM
Experimental: as §1, §2, §3, §4

[5] = system: Factor VIII deficient human plasma; assay: DDPTGA (reagent B) in FVIII depleted plasma; assay type: biochemical; conditions: compounds at 50 μM and 80, 90 or 100 μM; further: key: '+' means stimulates; '−' means does not stimulate
From the text: Preferably, Reagent C high is used.

[6] = system: Factor XI deficient human plasma; assay: DDPTGA (reagent B) in FXI depleted plasma; conditions: compounds at 50 μM and 80, 90 or 100 μM
Experimental: as §1, §2, §3, §4

Row | Molecule | NOAEL at 1 h (Acute toxicology in mice; ip) | NOAEL at 1 h (Acute toxicology in mice; iv) | solubility kinetic (physchem) | solubility (physchem; pH 7.4, Aqueous solubility) | Stimulation of thrombin generation [1] | Stimulation of thrombin generation [2] | Thrombin peak time given as FEIBA equivalent activity ([3]; peptide 6.25 μM) | Thrombin peak time given as FEIBA equivalent activity ([3]; peptide 12.5 μM) | Thrombin peak time given as FEIBA equivalent activity ([3]; peptide 25 μM) | Thrombin peak time given as FEIBA equivalent activity ([3]; peptide 50 μM) | Thrombin peak time given as FEIBA equivalent activity ([3]; peptide 100 μM) | Activity in the Defined Intrinsic Thrombin Generation Assay [3] | Stimulation of thrombin generation [4] | Stimulation of thrombin generation [5] | Stimulation of thrombin generation [6] | Peak IIa FVIII EU (FVIII deficient plasma; peptide 50 μM) | Peak Time FVIII EU (FVIII deficient plasma; peptide 50 μM) | Peak IIa FEIBA EU (FVIII inhibited plasma; peptide 50 μM) | Peak IIa FVIIa EU (FVIII inhibited plasma; peptide 50 μM) | Peak Time FEIBA EU (FVIII inhibited plasma; peptide 50 μM) | also measured
1 | CC[C@@H](C)[C@@H](NC(=O)[C@@H](CS)NC(C)=O)C(=O)N[C@H](CCSC)C(=O)N[C@H](Cc1ccccc1)C(=O)N[C@H](Cc1c[nH]c2ccccc12)C(=O)N[C@H](Cc1ccc(O)cc1)C(=O)N[C@H](CC(=O)O)C(=O)N[C@H](CCC(=O)O)C(=O)N[C@H](Cc1ccc(O)cc1)C(=O)N[C@H](CCC(=O)O)C(N)=O [Peptide B03, Ac-cimfwydeye-NH2] (Ac-[dC][dI][dM][dF][dW][dY][dD][dE][dY][dE]-NH2) | 15 mg/kg | 1.5 mg/kg | 114 µM (≈ 164 µg/mL) | 114 µM (≈ 164 µg/mL) | + | − | 454 mU/ml | 602 mU/ml | 738 mU/ml | 1030 mU/ml | 1394 mU/ml | possess activity | + | + | + |  |  |  |  |  | Effect on both peak time and peak IIa of thrombin generation (FVIII deficient plasma; DDPTGA, comment on Table 10): positively affected; Peak IIa FVIII EU (FVIII deficient plasma; peptide 40 μM): 4.8 mU/ml; Peak Time FVIII EU (FVIII deficient plasma; peptide 40 μM): 8.7 mU/ml; Peak IIa FVIII EU (FVIII deficient plasma; peptide 100 μM): 5.3 mU/ml; Peak Time FVIII EU (FVIII deficient plasma; peptide 100 μM): 7.5 mU/ml; Peak IIa FEIBA EU (FVIII inhibited plasma; peptide 40 μM): 7.2 mU/ml; Peak IIa FVIIa EU (FVIII inhibited plasma; peptide 40 μM): 0.2 nM; Peak Time FEIBA EU (FVIII inhibited plasma; peptide 40 μM): BLS (BLS = below lowest standard.); Peak Time FVIIa EU (FVIII inhibited plasma; peptide 40 μM): BLS (BLS = below lowest standard.); Peak IIa FEIBA EU (FVIII inhibited plasma; peptide 100 μM): 12.3 mU/ml; Peak IIa FVIIa EU (FVIII inhibited plasma; peptide 100 μM): 0.6 nM; Peak Time FEIBA EU (FVIII inhibited plasma; peptide 100 μM): BLS (BLS = below lowest standard.); Peak Time FVIIa EU (FVIII inhibited plasma; peptide 100 μM): BLS (BLS = below lowest standard.); Activity in the Defined Dual-Pathway Thrombin Generation Assay (FVIII inhibited plasma): possess activity
2 | Ac-PMKFDVWDLYFEIVW-NH2 [Peptide A02] | 25 mg/kg | 25 mg/kg | 35 µM | 35 µM | + | − | 577 mU/ml | 674 mU/ml | 780 mU/ml | 1018 mU/ml | 1305 mU/ml | possess activity | + | + | + | BLS (BLS = below lowest standard.) | BLS (BLS = below lowest standard.) | BLS (BLS = below lowest standard.) | BLS (BLS = below lowest standard.) | 10.2 mU/ml | solubility (physchem; pH 7.4, Solubility in PBS pH 7.4): ≥ 25 µM; Peak Time FVIIa EU (FVIII inhibited plasma; peptide 50 μM): 0.4 nM; Activity in the Defined Dual-Pathway Thrombin Generation Assay (FVIII inhibited plasma): possess activity
3 | Ac-RMKFDVWDLYFEIVW-NH2 [Peptide A01] | 20 mg/kg | 20 mg/kg | 9 µM | 9 µM | − | − | 97 mU/ml | 138 mU/ml | 160 mU/ml | 227 mU/ml | 338 mU/ml | possess activity | + | + | + | BLS (BLS = below lowest standard.) | BLS (BLS = below lowest standard.) | BLS (BLS = below lowest standard.) | BLS (BLS = below lowest standard.) | BLS (BLS = below lowest standard.) | Peak IIa FVIII EU (FVIII deficient plasma; peptide 90 μM): BLS (BLS = below lowest standard.); Peak Time FVIII EU (FVIII deficient plasma; peptide 90 μM): BLS (BLS = below lowest standard.); Peak Time FVIIa EU (FVIII inhibited plasma; peptide 50 μM): BLS (BLS = below lowest standard.); Peak IIa FEIBA EU (FVIII inhibited plasma; peptide 90 μM): BLS (BLS = below lowest standard.); Peak IIa FVIIa EU (FVIII inhibited plasma; peptide 90 μM): BLS (BLS = below lowest standard.); Peak Time FEIBA EU (FVIII inhibited plasma; peptide 90 μM): BLS (BLS = below lowest standard.); Peak Time FVIIa EU (FVIII inhibited plasma; peptide 90 μM): BLS (BLS = below lowest standard.)
4 | Ac-WDLYFEIVW-NH2 [Peptide A05] | 15 mg/kg |  | 6 µM | 6 µM | + | − | 390 mU/ml | 487 mU/ml | 562 mU/ml | 631 mU/ml | 816 mU/ml | possess activity | + | + | + | BLS (BLS = below lowest standard.) | BLS (BLS = below lowest standard.) | BLS (BLS = below lowest standard.) | BLS (BLS = below lowest standard.) | BLS (BLS = below lowest standard.) | Peak IIa FVIII EU (FVIII deficient plasma; peptide 100 μM): BLS (BLS = below lowest standard.); Peak Time FVIII EU (FVIII deficient plasma; peptide 100 μM): BLS (BLS = below lowest standard.); Peak Time FVIIa EU (FVIII inhibited plasma; peptide 50 μM): BLS (BLS = below lowest standard.); Peak IIa FEIBA EU (FVIII inhibited plasma; peptide 100 μM): BLS (BLS = below lowest standard.); Peak IIa FVIIa EU (FVIII inhibited plasma; peptide 100 μM): BLS (BLS = below lowest standard.); Peak Time FEIBA EU (FVIII inhibited plasma; peptide 100 μM): BLS (BLS = below lowest standard.); Peak Time FVIIa EU (FVIII inhibited plasma; peptide 100 μM): BLS (BLS = below lowest standard.)
5 | Ac-WDLYFEIVWE [Peptide A06] | 25 mg/kg | 1 mg/kg |  | 164 µM | + | + | 571 mU/ml | 750 mU/ml | 843 mU/ml | 919 mU/ml | 879 mU/ml | possess activity | + | + | + | BLS (BLS = below lowest standard.) | BLS (BLS = below lowest standard.) | BLS (BLS = below lowest standard.) | BLS (BLS = below lowest standard.) | BLS (BLS = below lowest standard.) | Peak IIa FVIII EU (FVIII deficient plasma; peptide 100 μM): BLS (BLS = below lowest standard.); Peak Time FVIII EU (FVIII deficient plasma; peptide 100 μM): BLS (BLS = below lowest standard.); solubility (physchem; pH 7.4, Solubility in PBS): 164 µM; Peak Time FVIIa EU (FVIII inhibited plasma; peptide 50 μM): BLS (BLS = below lowest standard.); Peak IIa FEIBA EU (FVIII inhibited plasma; peptide 100 μM): BLS (BLS = below lowest standard.); Peak IIa FVIIa EU (FVIII inhibited plasma; peptide 100 μM): BLS (BLS = below lowest standard.); Peak Time FEIBA EU (FVIII inhibited plasma; peptide 100 μM): BLS (BLS = below lowest standard.); Peak Time FVIIa EU (FVIII inhibited plasma; peptide 100 μM): 0.4 nM; Activity in the Defined Dual-Pathway Thrombin Generation Assay (FVIII inhibited plasma): possess activity
